Measured values from publication PMC5866846 (Archives of Toxicology, 2017).

Key:
CYP2B6 = CYP2B6 activity in upcyte hepatocytes after treatment (probe substrate cocktail); details: phenobarbital 2 mM, 72 h, both cell lines
Description: (§1) Cells were cultivated in hepatocyte culture medium at 37 °C and 5 °% CO2 in a humidified incubator. Before starting experiments, cells were cultivated in hepatocyte culture medium containing 0.5% (v/v) DMSO (Preculture medium) for 5 days (density of 0.8 × 10^4 cells/cm^2) and were subcultivated in high-performance medium containing 0.1% (v/v) DMSO (Metabolism conditioning medium) for 3–5 days (density of 1.6 × 10^5 cells/cm^2, confluence). The medium was replaced every 2–3 days.
(§2) In HLM and supersome™ incubations the formation rate is given as nmol µg^−1 min^−1 and fmol pmol^−1 min^−1, respectively, and was calculated as the mean ± SD. […] The intrinsic Clearance (Clint) was given as Vmax/Km ratio. […] Activity of CYP enzymes in induction assays is given as the fold-change (mean ± SD) compared to the corresponding DMSO-treated control. […] Gene expression patterns of treated cells are given as fold-change compared to the corresponding DMSO-treated control samples, as described above. […] In induction and inhibition experiments corresponding EC50 and IC50 values were calculated by nonlinear regression. In all experiments a level of probability (p) ≤ 0.05 for statistical testing was considered significant.
(§3) As control 0.05 % DMSO was used. The basal CYP activity and induction of CYP activity compared to the DMSO control were measured via HPLC-ESI-MS/MS.

CYP3A4 [1] = assay: CYP3A4 activity in upcyte hepatocytes after treatment (probe substrate cocktail)
Description: as §1, §2, §3

CYP3A4 gene expression = CYP3A4 gene expression in upcyte hepatocytes (Fluidigm RT-PCR)
Source text: (§4) Total RNA was isolated from cells using the Direct-zol™ RNA MiniPrep kit (Zymo Research Corp., Irvine, California). cDNA was synthesized using TaqMan Reverse Transcription Reagents (Life technologies, Applera GmbH, Darmstadt, Germany) and the expression of 25 genes representative of phase I and phase II drug metabolism and transport was quantified by Fluidigm’s BioMark HD high-throughput quantitative chip platform (Fluidigm Corporation, San Francisco, USA). For relative gene expression analysis, the delta-delta-Ct (ΔΔCt) method was used: the Ct values of the target mRNA were first normalized to those of the endogenous control glyceraldehyde-3-phosphate dehydrogenase (GAPDH) followed by dividing values of experimental samples by their corresponding DMSO-treated controls to calculate the x-fold changes of mRNA expression.
as §2, §3

SLC22A7 gene expression = SLC22A7 gene expression in upcyte hepatocytes (Fluidigm RT-PCR); format: cell-based, human; details: phenobarbital 2 mM, 72 h
Source text: as §4
(§5) In HLM and supersome™ incubations the formation rate is given as nmol µg^−1 min^−1 and fmol pmol^−1 min^−1, respectively, and was calculated as the mean ± SD. […] The intrinsic Clearance (Clint) was given as Vmax/Km ratio. […] In induction and inhibition experiments corresponding EC50 and IC50 values were calculated by nonlinear regression. […]
as §3

CYP2C8 gene expression = CYP2C8 gene expression in upcyte hepatocytes (Fluidigm RT-PCR); format: cell-based, human; details: phenobarbital 2 mM, 72 h; 'up to' = strongest decrease
Source text: (§6) Differences between induced and control samples were compared using Welch’s t-test (GraphPad Prism, version 5.04), when the fold-change was considered biologically relevant (1.5-fold increase or decrease in fold-changes) and corrected for multiple testing according to Bonferroni. […] An unpaired t-test assuming unequal variances was used for testing of differences in the expression patterns, when the fold-change was considered biologically relevant (1.5-fold increase or decrease in fold-changes) and corrected using Bonferroni adjustments.
(§7) As control 0.05 % DMSO was used.

CYP2C19 gene expression = CYP2C19 gene expression in upcyte hepatocytes (Fluidigm RT-PCR); format: cell-based, human; details: phenobarbital 2 mM, 72 h
Source text: as §6, §7

CYP2E1 gene expression = CYP2E1 gene expression in upcyte hepatocytes (Fluidigm RT-PCR); format: cell-based, human; details: phenobarbital 2 mM, 72 h; 'up to' = strongest decrease
Source text: as §6, §7

SULT1B1 gene expression = SULT1B1 gene expression in upcyte hepatocytes (Fluidigm RT-PCR); format: cell-based, human; details: phenobarbital 2 mM, 72 h; 'up to' = strongest decrease
UGT1A1 gene expression = UGT1A1 gene expression in upcyte hepatocytes (Fluidigm RT-PCR); format: cell-based, human; details: phenobarbital 2 mM, 72 h, both strains
Source text: as §4, §5, §3

SLCO1B1 gene expression = SLCO1B1 gene expression in upcyte hepatocytes (Fluidigm RT-PCR); format: cell-based, human; details: phenobarbital 2 mM, 72 h
Source text: as §4, §5, §3

NAT1 gene expression = NAT1 gene expression in upcyte hepatocytes (Fluidigm RT-PCR); format: cell-based, human; details: phenobarbital 2 mM, 72 h; 'up to' = strongest decrease
CYP3A4 [2] = details: hepatocytes
[3] = test system: upcyte hepatocytes 653-03 2D6; assay: Tam metabolism in upcyte hepatocytes 653-03 2D6, metabolites in culture medium; format: in vitro ADME, human; details: cells incubated with 1 µM Tam up to 144 h
Description: The medium was replaced every 2–3 days. […].
The culture medium was collected after 24, 48, 72, 96 and 144 h followed by metabolite measurements using HPLC-ESI-MS/MS.
Protein was precipitated by the addition of ACN containing 1% of acetic acid and the corresponding deuterated internal standards to the same volume of the sample followed by centrifugation at 20.000 g for 15 min at RT. […] Analytes were separated on a Zorbax Eclipse Plus C18 column (1.8 µm, 100 × 2.1 mm, Agilent technologies) and detected on a 6460 triple quadrupole mass spectrometer (Agilent technologies) in positive ESI MRM mode. Glucuronides of estrogen-like metabolites were detected separately via MS/MS-measurements in negative ESI MRM mode.
[…]. […] […].

CYP2C8 [4] = target: T1, CYP2C8 (Homo sapiens, UniProt P10632); assay: Inhibition of CYP2C8 activity in HLM; format: in vitro ADME; details: 200 nM to 10 µM, 10 min pre-incubation
T1 sequence (P10632 1-490): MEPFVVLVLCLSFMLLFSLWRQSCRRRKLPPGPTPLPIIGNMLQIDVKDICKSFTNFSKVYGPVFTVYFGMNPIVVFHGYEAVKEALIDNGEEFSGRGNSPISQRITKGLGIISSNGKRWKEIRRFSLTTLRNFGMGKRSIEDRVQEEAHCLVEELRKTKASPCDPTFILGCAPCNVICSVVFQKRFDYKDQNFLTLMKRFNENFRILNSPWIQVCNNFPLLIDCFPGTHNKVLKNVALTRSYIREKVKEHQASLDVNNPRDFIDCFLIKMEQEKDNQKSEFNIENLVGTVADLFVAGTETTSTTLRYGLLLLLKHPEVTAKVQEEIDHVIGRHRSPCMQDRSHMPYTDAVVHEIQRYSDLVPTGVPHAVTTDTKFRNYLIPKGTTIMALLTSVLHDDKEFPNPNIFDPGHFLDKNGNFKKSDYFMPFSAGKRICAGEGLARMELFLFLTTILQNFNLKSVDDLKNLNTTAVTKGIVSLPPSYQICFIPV

CYP2C9 = CYP2C9 (Homo sapiens, UniProt P11712); assay: Inhibition of CYP2C9 activity in HLM; format: in vitro ADME; details: human, human liver microsomes, 200 nM to 10 µM, 10 min pre-incubation
Chain of CYP2C9 (P11712 whole entry): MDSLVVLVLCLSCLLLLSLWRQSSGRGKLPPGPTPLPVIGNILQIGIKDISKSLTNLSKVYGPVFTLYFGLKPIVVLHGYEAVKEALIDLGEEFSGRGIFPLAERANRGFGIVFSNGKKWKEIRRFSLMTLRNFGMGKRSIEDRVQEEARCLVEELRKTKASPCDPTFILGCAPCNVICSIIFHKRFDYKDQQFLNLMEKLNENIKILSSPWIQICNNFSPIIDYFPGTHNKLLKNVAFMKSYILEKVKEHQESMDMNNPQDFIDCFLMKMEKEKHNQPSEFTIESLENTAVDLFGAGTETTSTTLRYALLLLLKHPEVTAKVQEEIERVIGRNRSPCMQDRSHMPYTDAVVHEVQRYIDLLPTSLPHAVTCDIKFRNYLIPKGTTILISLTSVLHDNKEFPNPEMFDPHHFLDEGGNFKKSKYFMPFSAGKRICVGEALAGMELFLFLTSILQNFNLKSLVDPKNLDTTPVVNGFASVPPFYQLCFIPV

CYP2C19 = CYP2C19 (Homo sapiens, UniProt P33261); assay: Inhibition of CYP2C19 activity in HLM; format: in vitro ADME; details: human, human liver microsomes, 200 nM to 10 µM, 10 min pre-incubation
Chain of CYP2C19 (P33261 whole entry): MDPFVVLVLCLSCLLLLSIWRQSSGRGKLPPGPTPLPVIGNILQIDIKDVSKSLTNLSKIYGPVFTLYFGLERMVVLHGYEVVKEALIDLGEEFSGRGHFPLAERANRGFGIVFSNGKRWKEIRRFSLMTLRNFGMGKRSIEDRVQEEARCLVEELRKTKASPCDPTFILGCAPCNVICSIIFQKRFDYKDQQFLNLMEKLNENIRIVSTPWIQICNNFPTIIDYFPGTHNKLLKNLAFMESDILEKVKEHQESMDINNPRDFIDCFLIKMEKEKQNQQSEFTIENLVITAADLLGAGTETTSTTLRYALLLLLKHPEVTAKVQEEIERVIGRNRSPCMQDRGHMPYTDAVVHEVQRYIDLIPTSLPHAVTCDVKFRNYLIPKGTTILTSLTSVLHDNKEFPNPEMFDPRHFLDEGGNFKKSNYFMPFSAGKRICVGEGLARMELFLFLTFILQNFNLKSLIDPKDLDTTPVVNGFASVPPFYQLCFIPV

CYP2A6 gene expression = CYP2A6 gene expression in upcyte hepatocytes (Fluidigm RT-PCR); format: cell-based, human; details: 5 µM, 72 h, both cell strains
Source text: as §6

SLC10A1 gene expression = SLC10A1 gene expression in upcyte hepatocytes (Fluidigm RT-PCR); format: cell-based, human; details: 5 µM, 72 h, both cell strains
Source text: as §6

CYP2C8 [5] = target: T1, CYP2C8; assay: CYP2C8 activity in upcyte hepatocytes after treatment (probe substrate cocktail); format: cell-based; design: host or cells: upcyte hepatocytes 653-03 and 653-03 #138 (653-03 2D6); details: human, upcyte hepatocytes 653-03 and 653-03 2D6, probe amodiaquine 5 µM, 5 µM, both cell lines
Description: as §1, §2, §3

For `CCC1(c2ccccc2)C(=O)NC(=O)NC1=O` [PB, phenobarbital], the “induction of CYP2B6 activity” value (CYP2B6) was “induced”, the “induction of CYP3A4 activity” value (CYP3A4 [1]; hepatocytes) was “induced” and the “CYP3A4 gene expression, induction” value (CYP3A4 gene expression; human, hepatocytes) was ≤ 9 fold. The SLC22A7 gene expression (SLC22A7 gene expression) was “down regulated”, the “CYP2C8 gene expression, decreased to x-fold of control” value (CYP2C8 gene expression) was “up to 0.3 fold” and the “CYP2C19 gene expression, induction” value (CYP2C19 gene expression) was “up to 1.5 fold”. The “CYP2E1 gene expression, decreased to x-fold of control” value (CYP2E1 gene expression) was ≤ 0.2 fold, the “SULT1B1 gene expression, down regulated to x-fold of control” value (SULT1B1 gene expression) was “up to 0.5 fold” and the “UGT1A1 gene expression, induction” value (UGT1A1 gene expression) was 1.8 fold. The “SLCO1B1 gene expression, induction” value (SLCO1B1 gene expression) was “up to 2.9 fold”, the “NAT1 gene expression, down regulated to x-fold of control” value (NAT1 gene expression) was “up to 0.5 fold” and the “protein expression of CYP3A4 (Western blot)” value (CYP3A4 [2]) was “induced”.
In the case of `CC/C(=C(\c1ccc(O)cc1)c1ccc(OCCN(C)C)cc1)c1ccccc1` [4OH-Tam, (Z)-4-Hydroxytamoxifen], the “concentration in the supernatant of 653-03 2D6 cells relative to parental cells” value [3] is reported as “up to 20 times”, the “induction of CYP3A4 activity compared to DMSO control” value (CYP3A4 [1]; 5 µM, 72 h, parental and derived cell line) is reported as “up to 2.1 fold” and the IC50 (CYP2C8 [4]) is reported as > 10 µM. For the same compound, the “IC50 of CYP2C8 activity” value (CYP2C8 [4]) was “only minor inhibition”, the IC50 at 15 min (CYP2C9) was > 10 µM and the IC50 at 15 min (CYP2C19) was > 10 µM. The “CYP3A4 gene expression, induction vs DMSO control” value (CYP3A4 gene expression; 5 µM, 72 h, both cell strains) was “up to 5.6 fold”, the “CYP2A6 gene expression, downregulation” value (CYP2A6 gene expression) was “up to twofold” and the “SLC10A1 gene expression, downregulation (fold lower)” value (SLC10A1 gene expression) was “up to twofold”. For the same compound, the inhibition at 72 h, 5 µM (CYP2C8 [5]) was ≤ 90%.
